Test results as given in PubChem BioAssay (NCI).
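Test compounds were applied to cells in 96-well plates for 48 hours at 5 doses. Definition used: TGI = concentration required for complete inhibition of growth.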

Key:
Assay in all cases: growth of human tumour cells (NCI), 48 h
EKVX NSCLC = tested on: EKVX NSCLC
MDA-MB-435 = tested on: MDA-MB-435
UACC-62 melanoma = tested on: UACC-62 melanoma
UO-31 renal = tested on: UO-31 renal
U251 CNS = tested on: U251 CNS
PC-3 prostate = tested on: PC-3 prostate
CCRF-CEM leukemia = tested on: CCRF-CEM leukemia
OVCAR-3 ovarian = tested on: OVCAR-3 ovarian
OVCAR-4 ovarian = tested on: OVCAR-4 ovarian

Compound	TGI (EKVX NSCLC)	TGI (MDA-MB-435)	TGI (UACC-62 melanoma)	TGI (UO-31 renal)	TGI (U251 CNS)	TGI (PC-3 prostate)	TGI (CCRF-CEM leukemia)	TGI (OVCAR-3 ovarian)	TGI (OVCAR-4 ovarian)
CCOc1cc2c(cc1O)CC[C@@H]1[C@@H]2CC[C@]2(C)[C@@H](O)CC[C@@H]12	48 µM	0.0761 µM	19.7 µM	63.1 µM	19.3 µM	40.8 µM	11.9 µM	0.76 µM	> 100 µM
O=S(=O)(c1ccc2ccccc2c1)N1CCN(S(=O)(=O)c2ccc3ccccc3c2)CC1	> 100 µM	> 100 µM	> 100 µM	> 100 µM	> 100 µM	> 100 µM	> 100 µM	> 100 µM	> 100 µM
CC(=O)Nc1sccc1S(=O)(=O)c1ccc(Cl)cc1	> 100 µM	> 100 µM	> 100 µM	> 100 µM	> 100 µM	> 100 µM	> 100 µM	> 100 µM	> 100 µM
CC1=NNC(=O)[C@H]2[C@H]1CCC1[C@@H]2CC[C@]2(C)[C@@H](O)CC[C@@H]12 (some centres not stated)	> 100 µM	> 100 µM	> 100 µM	> 100 µM	> 100 µM	> 100 µM	> 100 µM	> 100 µM	> 100 µM
FC(F)(F)c1cnc(N/N=C(/c2ccccc2)c2ccccn2)c(Cl)c1	17.5 µM	> 100 µM	23.1 µM	21.7 µM	30.4 µM	24.6 µM	17.6 µM	11.7 µM	24.8 µM
O=C(Nc1ccc(Cl)c(C(F)(F)F)c1)C(=O)c1c(O)c2ccccc2oc1=O	> 100 µM	> 100 µM	> 100 µM	> 100 µM	> 100 µM	> 100 µM	> 100 µM	> 100 µM	> 100 µM
CC1(CCCCO)C=CC(S(=O)(=O)c2ccccc2)CC1 (configuration not stated)	18 µM	21.8 µM	18.3 µM	16.3 µM	21.5 µM	15.1 µM	11.2 µM	19 µM	22.8 µM
N#Cc1c(N)nc2n[nH]c(N)c2c1-c1ccccc1	55 µM	36.1 µM	8.02 µM	32.3 µM	92.2 µM	35.5 µM	> 100 µM	20.5 µM	> 100 µM
Nc1nc2c(c(=O)[nH]1)NC(CCNc1ccc(C(=O)O)cc1)CN2 (configuration not stated)	> 100 µM	> 100 µM	> 100 µM	> 100 µM	> 100 µM	> 100 µM	> 100 µM	> 100 µM	> 100 µM
O=S(=O)(/N=C(\NO)Nc1ccc(Cl)cc1)c1cc(S(=O)(=O)c2ccccc2)cs1	35.4 µM	29.9 µM	43.1 µM	27.6 µM	30.6 µM	33.9 µM	43.5 µM	31.1 µM	57.3 µM
COc1ccc2c(C(=O)c3c(C)n(CCN4CCOCC4)c4ccccc34)cccc2c1	> 100 µM	22.8 µM	> 100 µM	> 100 µM	52.2 µM	96.6 µM	27.1 µM	29.6 µM	> 100 µM
Cc1cc(OC(=O)Nc2ccc(Cl)cc2)ccc1C(=S)Nc1ccccc1	> 100 µM	> 100 µM	> 100 µM	> 100 µM	> 100 µM	> 100 µM	58 µM	> 100 µM	> 100 µM
CC(C)CCCC(C)[C@H]1CCC2[C@@H]3CCC4Cc5nc6c(nc5C[C@]4(C)C3CC[C@@]21C)CC1CC[C@@H]2C(CC[C@@]3(C)C2CC[C@@H]3O)[C@@]1(C)C6 (some centres not stated)	> 100 µM	> 100 µM	> 100 µM	> 100 µM	> 100 µM	> 100 µM	> 100 µM	> 100 µM	> 100 µM
CCN(CC)Cc1ccc(Nc2c3ccccc3nc3ccccc23)cc1	26.2 µM	4.17 µM	3.66 µM	5.22 µM	6.68 µM	3.68 µM	8.28 µM	12.8 µM	7.64 µM
CCOC(=O)C(C)(Cc1ccc(O)cn1)NC(=O)c1ccccc1 (configuration not stated)	> 100 µM	> 100 µM	> 100 µM	> 100 µM	> 100 µM	> 100 µM	> 100 µM	> 100 µM	> 100 µM
COc1cccc(Nc2nc(NS(=O)(=O)c3cc(C)c(Cl)cc3S)n[nH]2)c1	> 100 µM	> 100 µM	> 100 µM	> 100 µM	> 100 µM	> 100 µM	> 100 µM	> 100 µM	> 100 µM
O=C(O)Cc1ccc(Oc2nc3ccccc3nc2-c2ccccc2)cc1	79.5 µM	> 100 µM	75.7 µM	> 100 µM	> 100 µM	> 100 µM	> 100 µM	65.6 µM	> 100 µM
CCCCC1Cc2cc(OC)ccc2-c2n1c1cc(OC)ccc1[n+]2C (configuration not stated) (tested in a mixture with another compound)	20.2 µM	3.79 µM	3.03 µM	30.9 µM	> 26.5 µM	30.4 µM	25.3 µM	> 72.1 µM	20.7 µM
